Earlier results in patent publication US20210095260A1, “BI- OR MULTI-DIFFERENTIATED ORGANOID” (IMBA - INSTITUT FÜR MOLEKULARE BIOTECHNOLOGIE GMBH, priority 2017, published 2021).

Test system: hPSCs
Settings: inhibition of SHH activity; cited from earlier work

**Q.** Which dorsal forebrain identity does the source give for `CC1=C2C[C@H]3[C@@H](CC=C4C[C@@H](O)CC[C@@]43C)[C@@H]2CC[C@]12O[C@@H]1C[C@H](C)CN[C@H]1[C@H]2C` [CycA, cyclopamine A] here?
**A.** Its dorsal forebrain identity is “can enhance dorsal forebrain identity”.
